Test results as given in the supplement of paper PMC9663587.

Compound: CCN1CCN(Cc2ccc(Nc3ncc(F)c(-c4cc(F)c5nc(C)n(C(C)C)c5c4)n3)nc2)CC1
Assay: increase in dead-cell fraction, 72 h; higher = more death;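 further: breast cancer cell lines in 384-well plates, stained with Hoechst plus LIVE/DEAD far red dye and imaged, cells above an LDR intensity threshold counted dead, Hoechst-negative corpses included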
Conditions: 0.001 µM

Cell Line | increase in dead-cell fraction
HCC1569 | -0.0009
HCC1806 | 0.0032
HCC1937 | -0.0017
HCC1954 | -0.0023
HS578T | 0.0038

Same assay, conditions: 0.003162 µM

Cell Line | increase in dead-cell fraction
HCC1569 | 0.0054
HCC1806 | -0.005
HCC1937 | -0.0029
HCC1954 | -0.0166
HS578T | 0.0096

Same assay, conditions: 0.01 µM

Cell Line | increase in dead-cell fraction
HCC1569 | 0.0105
HCC1806 | 0.0052
HCC1937 | -0.0019
HCC1954 | -0.0193
HS578T | 0.0242

Same assay, conditions: 0.03162 µM

Cell Line | increase in dead-cell fraction
HCC1569 | 0.0034
HCC1806 | 0.0175
HCC1937 | -0.0004
HCC1954 | -0.0017
HS578T | 0.0401

Same assay, conditions: 0.1 µM

Cell Line | increase in dead-cell fraction
HCC1569 | -0.0024
HCC1806 | 0.0076
HCC1937 | -0.0064
HCC1954 | -0.0058
HS578T | 0.0754

Same assay, conditions: 0.3162 µM

Cell Line | increase in dead-cell fraction
HCC1569 | -0.0047
HCC1806 | 0.0172
HCC1937 | -0.0073
HCC1954 | -0.0054
HS578T | 0.0958

Same assay, conditions: 1 µM

Cell Line | increase in dead-cell fraction
HCC1569 | 0.0011
HCC1806 | 0.043
HCC1937 | -0.0012
HCC1954 | 0.0303
HS578T | 0.171

Same assay, conditions: 3.162 µM

Cell Line | increase in dead-cell fraction
HCC1569 | 0.0024
HCC1806 | 0.154
HCC1937 | 0.0025
HCC1954 | 0.11
HS578T | 0.511

Same assay, conditions: 10 µM

Cell Line | increase in dead-cell fraction
HCC1569 | 0.0361
HCC1806 | 0.698
HCC1937 | 0.0559
HCC1954 | 0.683
HS578T | 0.844

Compound: CCOc1cc2ncc(C#N)c(Nc3ccc(OCc4ccccn4)c(Cl)c3)c2cc1NC(=O)/C=C/CN(C)C [Neratinib/HKI272]
Assay: as above
Conditions: 0.0003162 µM

Cell Line | increase in dead-cell fraction
HCC1569 | -0.0105
HCC1806 | 0.0048
HCC1937 | 0.0017
HCC1954 | 0.0018
HS578T | 0.0023

Same assay, conditions: 0.001 µM

Cell Line | increase in dead-cell fraction
HCC1569 | 0.0063
HCC1806 | -0.0002
HCC1937 | 0.0031
HCC1954 | 0.0012
HS578T | 0.0036

Same assay, conditions: 0.003162 µM

Cell Line | increase in dead-cell fraction
HCC1569 | 0.0037
HCC1806 | 0.0056
HCC1937 | 0.0127
HCC1954 | 0.0264
HS578T | 0.0026

Same assay, conditions: 0.01 µM

Cell Line | increase in dead-cell fraction
HCC1569 | 0.0107
HCC1806 | 0.015
HCC1937 | 0.0186
HCC1954 | 0.0121
HS578T | 0.0046

Same assay, conditions: 0.03162 µM

Cell Line | increase in dead-cell fraction
HCC1569 | 0.0135
HCC1806 | 0.0267
HCC1937 | 0.0314
HCC1954 | 0.0581
HS578T | 0.0039

Same assay, conditions: 0.1 µM

Cell Line | increase in dead-cell fraction
HCC1569 | 0.0196
HCC1806 | 0.0441
HCC1937 | 0.0326
HCC1954 | 0.111
HS578T | 0.0039

Same assay, conditions: 0.3162 µM

Cell Line | increase in dead-cell fraction
HCC1569 | 0.0247
HCC1806 | 0.065
HCC1937 | 0.0327
HCC1954 | 0.17
HS578T | 0.0303

Same assay, conditions: 1 µM

Cell Line | increase in dead-cell fraction
HCC1569 | 0.0283
HCC1806 | 0.0775
HCC1937 | 0.0368
HCC1954 | 0.264
HS578T | 0.061

Same assay, conditions: 3.162 µM

Cell Line | increase in dead-cell fraction
HCC1569 | 0.0338
HCC1806 | 0.435
HCC1937 | 0.0974
HCC1954 | 0.42
HS578T | 0.5

Compound: CCc1cnn2c(NCc3ccc[n+]([O-])c3)cc(N3CCCC[C@H]3CCO)nc12
Assay: as above
Conditions: 0.0001 µM

Cell Line | increase in dead-cell fraction
HCC1569 | -0.0022
HCC1806 | -0.0016
HCC1937 | 0.0021
HCC1954 | -0.0062
HS578T | 0.0032

Same assay, conditions: 0.0003162 µM

Cell Line | increase in dead-cell fraction
HCC1569 | -0.0018
HCC1806 | -0.0077
HCC1937 | -0.0036
HCC1954 | -0.012
HS578T | -0.0013

Same assay, conditions: 0.001 µM

Cell Line | increase in dead-cell fraction
HCC1569 | -0.0077
HCC1806 | -0.0005
HCC1937 | 0.0015
HCC1954 | -0.0086
HS578T | 0.0026

Same assay, conditions: 0.003162 µM

Cell Line | increase in dead-cell fraction
HCC1569 | -0.0052
HCC1806 | 0.0006
HCC1937 | -0.0021
HCC1954 | -0.0038
HS578T | 0.0085

Same assay, conditions: 0.01 µM

Cell Line | increase in dead-cell fraction
HCC1569 | 0.0106
HCC1806 | 0.0355
HCC1937 | 0.0113
HCC1954 | 0.0856
HS578T | 0.187

Same assay, conditions: 0.03162 µM

Cell Line | increase in dead-cell fraction
HCC1569 | 0.112
HCC1806 | 0.585
HCC1937 | 0.156
HCC1954 | 0.615
HS578T | 0.415

Same assay, conditions: 0.1 µM

Cell Line | increase in dead-cell fraction
HCC1569 | 0.155
HCC1806 | 0.742
HCC1937 | 0.192
HCC1954 | 0.704
HS578T | 0.441

Same assay, conditions: 0.3162 µM

Cell Line | increase in dead-cell fraction
HCC1569 | 0.138
HCC1806 | 0.728
HCC1937 | 0.181
HCC1954 | 0.691
HS578T | 0.423

Same assay, conditions: 1 µM

Cell Line | increase in dead-cell fraction
HCC1569 | 0.141
HCC1806 | 0.713
HCC1937 | 0.19
HCC1954 | 0.7
HS578T | 0.443
